No end group written: not given here.

The test system of one data set is PVN and SON. Kind of data set: AVP secretion in vitro, static incubation of PVN and SON. Format: cell-based. As to conditions: rat nuclei in vitro; for basal AVP secretion, static incubation of PVN and SON: peptide 10^−6 M; for AT-II-induced AVP secretion, static incubation of PVN and SON: peptide 10^−6 M + AT-II 10^−6 M. The protocol: (§1) Blood samples were taken 15 minutes after the injection of NERPs. Plasma AVP was measured using an RIA kit (manufactured by Mitsubishi). Six pieces of PVN and SON were taken from the rat hypothalamus. Each nucleus was preincubated for an hour at 37° C. in medium 199 (25 mM HEPES buffer, pH 7.4, 2.5% fetal calf serum, 2.5% bovine serum and 1% penicillin-streptomycin) equilibrated under 95% O2 (n=4 wells/group). These nuclei were sequentially stimulated 3 times each for 5 minutes, using one of NERP-1 (10^−6 M), NERP-1 (10^−6 M)+AT-II (10^−6 M) and AT-II (10^−6 M). Stimulation periods were separated by 5-minute recovery periods. Similarly, these nuclei were stimulated using one of NERP-2 (10^−6 M), NERP-2 (10^−6 M)+AT-II (10^−6 M), NERP-1-Gly (10^−6 M) and NERP-2-Gly (10^−6 M). After they were thus stimulated, KCl of 6×10^−2 M was added to confirm depolarization-induced secretion. The two pieces from rat posterior pituitary were stimulated by NERPs and AT-II under the same conditions as described above. Aliquots of the medium were provided for RIA to measure AVP. The experiment was replicated 5 times.

For another data set, the system named is AVP secretion. Kind of data set: AVP secretion in vivo after ICV administration (plasma AVP by RIA). As to conditions: rat; for AT-II induced AVP release: ICV preadministration, AT-II (1 nmol/10 μl) ICV 5 minutes after, plasma AVP; for AVP release induced by high salt administration: ICV, hypertonic saline (850 mM NaCl/10 μl) ICV 5 minutes after, plasma AVP 15 minutes after injection. How it is done: NERP-1, NERP-1-Gly, NERP-2 or NERP-2-Gly was ICV-administered to rats, followed by ICV administration of hypertonic saline (850 mM NaCl/10 μl) or angiotensin II (AT-II) (1 nmol/10 μl) 5 minutes after.
as §1

Data set [1] has as its system orexin knockout mice and wild-type littermates. The experiment in a line: One-hour food intake in orexin knockout mice and wild-type littermates after ICV injection. The format is in vivo, mouse. As to conditions: ICV 1 nmol/2 μl saline. How it is done: (§2) To assess feeding, NERP-1, NERP-2 or NERP-2-Gly (0.1-5 nmol/10 μl) was ICV-injected to rats (n=15 per group) at 09:30. Anti-orexin A IgG (0.25 μg/10 μl, Santa Cruz) and anti-orexin B IgG (0.25 μg/10 μl, Santa Cruz) or anti-MCH IgG (0.5 μg/10 μl, Phoenix) was ICV-injected at 09:00 to rats (n=12 per group). In all cases, IgG was injected […] before the NERP-2 administration. Food intake was monitored for an hour. In mouse experiments, NERP-2 (1 nmol/2 μl saline) or MCH (1 nmol/2 μl saline) was ICV-injected to orexin knockout mice (Cell, 92, 573-585 (1998)) and wild-type littermates (n=5 per group, 4 month-old male), then one-hour food intake was measured. Orexin knockout mice were prepared by targeted mutation in ES cells (Cell, 92, 573-585 (1998)).

For data set [2], the system named is orexin knockout mice and wild-type mice. The experiment in a line: Locomotor stimulating activity in mice after ICV administration. Format: in vivo, mouse. The following applies: ICV 5 nmol/2 μl saline, counts summed 30 to 120 minutes after administration. How it is done:
Movement of mice given an ICV administration of NERP-2 (5 nmol/2 μl saline) or vehicle was measured in sound- and light-proof cages equipped with an infrared detector (Muromachi Co. Ltd., Tokyo, Japan) as previously described according to the method described in Endocrinology, 144, 4729-4733 (2003). Locomotor activity counts were measured every 15 minutes and summed for the period of 30 minutes to 120 minutes after the administration.

Another data set concerns free-feeding rats. The experiment in a line: Feeding experiments in rats after ICV injection. The format is in vivo, rat. The protocol: as §2
A further data set deals with SON neurons. Format: cell-based, rat. The following applies: for GABAergic IPSC in the SON neurons: holding potential −20 mV.
The next data set relates to posterior pituitary. Kind of data set: AVP secretion in vitro, static incubation of posterior pituitary. Format: cell-based. As to conditions: rat posterior pituitary in vitro, same conditions (10^−6 M). How it is done: as §1

Consider “NERP-2: VGF-derived peptide; human, rat and mouse sequences are SEQ ID NO: 7, 8 and 9; rat form an amidated 38-amino acid peptide (QAEATRQAAAQEERLADLASDLLLQYLLQGGARQRGLG; also: rat form amidated, species of this chain not given here; UniProt O15240 310-347, looked up) [VGF-derived peptide; rat form an amidated 38-amino acid peptide]”, for which, in the data set on PVN and SON, the “basal AVP secretion, static incubation of PVN and SON” value is “suppressed”; the “AT-II-induced AVP secretion, static incubation of PVN and SON” value is given as “suppressed”. For the same substance, in the data set with AVP secretion, the “AT-II induced AVP release” value was “inhibited” and the “AVP release induced by high salt administration” value is reported as “inhibited”. In data set [1], the “food intake in orexin knockout mice” value was “did not stimulate” and the “food intake in wild-type control mice” value was “stimulated”. In data set [2], the “total locomotor activity in the orexin knockout mice” value is recorded as “did not stimulate” and the “total locomotor activity in the wild-type mice” value is on record as “stimulated”. The “food intake during the light phase” value with free-feeding rats (free-feeding rats, ICV 0.1-5 nmol/10 μl, one-hour intake) is reported as “dose-dependently increased”. The “lowest effective dose for increased food intake” value in the data set on free-feeding rats (free-feeding rats, ICV, light phase) came to 0.1 nmol. Moreover, in the data set on free-feeding rats (rats receiving ICV injection), the “behavior compared to the control group” value was “remained alert and showed no unusual behavior”. The “duration of orexigenic effect after the ICV injection” value in the data set on free-feeding rats (rats, ICV) was “did not last longer than an hour”. For the same substance, in the data set with SON neurons (rat slice, patch-clamp), the “GABAergic IPSC in the SON neurons” value is reported as “increased”.
Turning to “NERP-1: VGF-derived peptide; human, rat and mouse sequences are SEQ ID NO: 4, 5 and 6; rat form an amidated 25-amino acid peptide (RPESALLGGSEAGERLLQQGLAQVEA; Neuroendocrine regulatory peptide-1; UniProt O15240 281-306, looked up) [VGF-derived peptide; rat form an amidated 25-amino acid peptide]”, in the data set on PVN and SON, the “basal AVP secretion, static incubation of PVN and SON” value is given as “suppressed”; the “AT-II-induced AVP secretion, static incubation of PVN and SON” value is reported as “suppressed”. Moreover, in the data set on AVP secretion, the “AT-II induced AVP release” value is reported as “suppressed” and the “AVP release induced by high salt administration” value was “dose-dependently suppressed”. Further, the “AVP secretion from the posterior pituitary” value with posterior pituitary is given as “suppressed”. For the same substance, the “IPSCs induced by NERP-1 on application of hemoglobin (Hb)” value with SON neurons (Hb 10^−6 M, NO scavenger, added 5 minutes after NERP-1) is given as “not affected”. For the same substance, the “presynaptic GABAergic currents induced by NERP-1 in presence of tetrodotoxin” value with SON neurons (TTX 10^−6 M, Na+ channel blocker, added 5 minutes after NERP-1) is “remained unchanged”. Moreover, in the data set on SON neurons (rat SON slice, patch-clamp), the “amplitude of IPSC” value is “did not increase” and the “frequency of IPSC” value is on record as “increased”. In the data set with SON neurons (rat slice, patch-clamp), the “GABAergic IPSC in the SON neurons” value is “increased”. Moreover, the “EPSC in the SON neurons” value in the data set with SON neurons (rat slice, patch-clamp, holding potential −70 mV) is “did not increase”.

The values are drawn from patent publication US20100040621A1, “Novel polpeptide and use thereof” (TAKEDA PHARMACEUTICAL COMPANY LIMITED, priority 2005, published 2010).
